Experimental data from patent US12258354B2, “AhR modulators” (IDEAYA BIOSCIENCES, INC., priority 2018, dated 2025).

What follows are compounds tested against T1, hAhR (Homo sapiens, UniProt P35869) (assay: DRE-luciferase transcriptional reporter assay in HEPG2 DRE-Luc cells, TCDD-induced (antagonist mode)). Settings: relative IC50, 3 nM TCDD, 24-hour incubation, firefly luciferase readout.
T1 construct: Stably integrated DRE-luciferase cell lines were generated by transducing the both cell lines with Cignal XRE luciferase reporter; endogenous in cells; host or cells: HEPG2 DRE-Luc cells (only the XRE luciferase reporter was transduced)
T1 sequence (P35869 11-848): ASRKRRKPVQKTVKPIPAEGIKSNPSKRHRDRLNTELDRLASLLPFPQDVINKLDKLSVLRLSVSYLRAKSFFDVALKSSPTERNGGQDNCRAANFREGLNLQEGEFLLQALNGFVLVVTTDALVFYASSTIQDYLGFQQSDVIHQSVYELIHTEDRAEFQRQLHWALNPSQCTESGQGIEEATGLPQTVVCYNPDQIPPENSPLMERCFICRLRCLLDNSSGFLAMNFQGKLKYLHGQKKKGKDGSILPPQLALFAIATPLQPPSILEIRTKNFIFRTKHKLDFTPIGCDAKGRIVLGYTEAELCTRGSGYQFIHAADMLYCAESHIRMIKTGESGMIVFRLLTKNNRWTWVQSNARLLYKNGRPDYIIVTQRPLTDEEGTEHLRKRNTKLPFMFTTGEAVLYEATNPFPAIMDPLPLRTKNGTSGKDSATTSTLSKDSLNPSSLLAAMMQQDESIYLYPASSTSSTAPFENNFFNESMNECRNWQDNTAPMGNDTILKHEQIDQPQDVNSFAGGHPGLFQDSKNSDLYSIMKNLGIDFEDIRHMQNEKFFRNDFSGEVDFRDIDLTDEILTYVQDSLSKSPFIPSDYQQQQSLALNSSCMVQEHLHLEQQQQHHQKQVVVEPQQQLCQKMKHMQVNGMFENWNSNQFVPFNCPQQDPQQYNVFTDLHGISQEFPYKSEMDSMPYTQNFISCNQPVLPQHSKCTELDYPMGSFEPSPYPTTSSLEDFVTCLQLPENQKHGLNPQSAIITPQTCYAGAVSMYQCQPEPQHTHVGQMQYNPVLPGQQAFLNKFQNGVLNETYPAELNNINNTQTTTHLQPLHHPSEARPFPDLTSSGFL
Format: cell-based
In short: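 Stable DRE(XRE)-luciferase HEPG2 clone seeded in OptiMEM with 0.5% heat-inactivated FBS, then given a semi-log compound dilution plus TCDD at 3 nM final. After 24 h, cells were lysed and firefly luminescence read. Response was normalised between TCDD and vehicle, and relative IC50 was taken as half-reduction between the fitted curve plateaus.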

SMILES | IC50 [nM]
Cc1cc(-c2ncc3cc(C(F)(F)F)ccc3n2)ccc1N1CCOc2cnn(CCN3CCC(F)(F)CC3)c2C1=O [compound 073, 1-(2-(4,4-difluoropiperidin-1-yl)ethyl)-7-(2-methyl-4-(6-(trifluoromethyl)-quinazolin-2-yl)phenyl)-6,7-dihydro-1H-pyrazolo[3,4-f][1,4]oxazepin-8 (5H)-one] | 1000 to 10000
Cc1cc(-c2ncc3cc(C(F)(F)F)ccc3n2)ccc1N1CCOc2cnn(Cc3nnn[nH]3)c2C1=O [compound 075, 7-[2-methyl-4-[6-(trifluoromethyl)quinazolin-2-yl]phenyl]-1-[(1H-1,2,3,4-tetrazol-5-yl)methyl]-1H,5H,6H,7H,8H-pyrazolo[3,4-f][1,4]oxazepin-8-one] | 1000 to 10000
Cc1cc(-c2ncc3cc(C(F)(F)F)ccc3n2)ccc1N1CCOc2cn(Cc3nnn[nH]3)nc2C1=O [compound 077, 2-((1H-tetrazol-5-yl)methyl)-7-(2-methyl-4-(6-(trifluoromethyl)-quinazolin-2-yl)phenyl)-6,7-dihydro-2H-pyrazolo[3,4-f][1,4]oxazepin-8 (5H)-one] | 1000 to 10000
Cc1cc(-c2ncc3cc(C(F)(F)F)ccc3n2)ccc1N1CCn2ncc(N[C@@H](C)CO)c2C1=O [compound 081, (S)-3-((1-hydroxypropan-2-yl)amino)-5-(2-methyl-4-(6-(trifluoromethyl)-quinazolin-2-yl)phenyl)-6,7-dihydropyrazolo[1,5-a]pyrazin-4 (5H)-one] | < 200
Cc1cc(-c2ncc3nc(C(F)(F)F)ccc3n2)ccc1N1CCOc2c(CO)nn(C)c2C1=O [compound 082, 3-(hydroxymethyl)-1-methyl-7-(2-methyl-4-(6-(trifluoromethyl)-pyrido-[3,2-d]pyrimidin-2-yl)phenyl)-6,7-dihydro-1H-pyrazolo[3,4-f][1,4]oxazepin-8 (5H)-one] | < 200
Cc1cc(-c2ncc3nc(C(F)(F)F)ccc3n2)ccc1N1CCOc2c(C(C)O)nn(C)c2C1=O (stereo not drawn) [compound 083, 3-(1-hydroxyethyl)-1-methyl-7-(2-methyl-4-(6-(trifluoromethyl)-pyrido[3,2-d]pyrimidin-2-yl)phenyl)-6,7-dihydro-1H-pyrazolo[3,4-f][1,4]oxazepin-8 (5H)-one] | < 200
Cc1cc(-c2ncc3nc(C(F)(F)F)ccc3n2)ccc1N1CCOc2c(C(C)(C)O)nn(C)c2C1=O [compound 084, 3-(2-hydroxypropan-2-yl)-1-methyl-7-(2-methyl-4-(6-(trifluoromethyl)pyrido[3,2-d]pyrimidin-2-yl)phenyl)-6,7-dihydro-1H-pyrazolo[3,4-f][1,4]oxazepin-8 (5H)-one] | < 200
CCOC(=O)c1nn(C)c2c1OCCN(c1ccc(-c3ncc4nc(C(F)(F)F)ccc4n3)cc1C)C2=O [compound 086, ethyl 1-methyl-7-(2-methyl-4-(6-(trifluoromethyl)pyrido[3,2-d]pyrimidin-2-yl)phenyl)-8-oxo-5,6,7,8-tetrahydro-1H-pyrazolo[3,4-f][1,4]oxazepine-3-carboxylate] | < 200
Cc1cc(-c2ncc3nc(C(F)(F)F)ccc3n2)ccc1N1CCn2nc(CO)c(C)c2C1=O [compound 088, 2-(hydroxymethyl)-3-methyl-5-(2-methyl-4-(6-(trifluoromethyl)-pyrido-[3,2-d]pyrimidin-2-yl)phenyl)-6,7-dihydropyrazolo[1,5-a]pyrazin-4 (5H)-one] | < 200
Cc1cc(-c2ncc3cc(C(F)(F)F)ccc3n2)ccc1N1CCn2nc(CN3CCOC(C)C3)c(C)c2C1=O (stereo not drawn) [compound 091, 3-methyl-5-(2-methyl-4-(6-(trifluoromethyl)quinazolin-2-yl)phenyl)-2-((2-methylmorpholino)methyl)-6,7-dihydropyrazolo[1,5-a]pyrazin-4 (5H)-one] | < 200
Cc1cc(-c2ncc3cc(C(F)(F)F)ccc3n2)ccc1N1CCn2nc(C(C)O)cc2C1=O (stereo not drawn) [compound 092, 2-(1-hydroxyethyl)-5-(2-methyl-4-(6-(trifluoromethyl)quinazolin-2-yl)phenyl)-6,7-dihydropyrazolo[1,5-a]pyrazin-4 (5H)-one] | < 200

Continued, values first:

IC50 [nM] | SMILES
1000 to 10000 | Cc1cc(-c2ncc3cc(C(F)(F)F)ccc3n2)ccc1N1CCOc2cnn(CC(=O)O)c2C1=O [compound 076, 2-(7-(2-methyl-4-(6-(trifluoromethyl)quinazolin-2-yl)phenyl)-8-oxo-5,6,7,8-tetrahydro-1H-pyrazolo[3,4-f][1,4]oxazepin-1-yl)acetic acid]
1000 to 10000 | Cc1cc(-c2ncc3cc(C(F)(F)F)ccc3n2)ccc1N1CCOc2cn(CC(=O)O)nc2C1=O [compound 078, 2-(7-(2-methyl-4-(6-(trifluoromethyl)quinazolin-2-yl)phenyl)-8-oxo-5,6,7,8-tetrahydro-2H-pyrazolo[3,4-f][1,4]oxazepin-2-yl)acetic acid]
< 200 | Cc1cc(-c2ncc3cc(C(F)(F)F)ccc3n2)ccc1N1CCn2ncc(CO)c2C1=O [compound 079, 3-(hydroxymethyl)-5-(2-methyl-4-(6-(trifluoromethyl)quinazolin-2-yl)phenyl)-6,7-dihydropyrazolo[1,5-a]pyrazin-4 (5H)-one]
< 200 | Cc1cc(-c2ncc3cc(C(F)(F)F)ccc3n2)ccc1N1CCn2nc(C(=O)N[C@H](C)CO)c(C)c2C1=O [compound 080, (R)-N-(1-hydroxypropan-2-yl)-3-methyl-5-(2-methyl-4-(6-(trifluoromethyl)-quinazolin-2-yl)phenyl)-4-oxo-4,5,6,7-tetrahydropyrazolo[1,5-a]pyrazine-2-carboxamide]
< 200 | Cc1cc(-c2ncc3nc(C(F)(F)F)ccc3n2)ccc1N1CCOc2c(CN(C)C)nn(C)c2C1=O [compound 085, 3-((dimethylamino)methyl)-1-methyl-7-(2-methyl-4-(6-(trifluoromethyl)pyrido-[3,2-d]pyrimidin-2-yl)phenyl)-6,7-dihydro-1H-pyrazolo[3,4-f][1,4]oxazepin-8 (5H)-one]
< 200 | Cc1cc(-c2ncc3cc(C(F)(F)F)ccc3n2)ccc1N1CCn2nc(OCCO)c(C)c2C1=O [compound 089, 2-(2-hydroxyethoxy)-3-methyl-5-(2-methyl-4-(6-(trifluoromethyl)quinazolin-2-yl)phenyl)-6,7-dihydropyrazolo[1,5-a]pyrazin-4 (5H)-one]
< 200 | Cc1cc(-c2ncc3cc(C(F)(F)F)ccc3n2)ccc1N1CC(COCc2ccccc2)n2ncc(C)c2C1=O (stereo not drawn) [compound 090, 7-((benzyloxy)methyl)-3-methyl-5-(2-methyl-4-(6-(trifluoromethyl)-quinazolin-2-yl)phenyl)-6,7-dihydropyrazolo[1,5-a]pyrazin-4 (5H)-one]
